tested on: HCV 1b_Huh-Luc/Neo-ET cell line persistently expressing a bicistronic genotype 1b replicon in Huh 7 cells; assay: HCV replicon assay (luciferase readout); assay type: cell-based; settings: Hepatitis C virus, Huh-7, 72 h, read-out: Inhibition of HCV genotype 1b
Method in brief: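 EC50, determined repeatedly, comes from a four-parameter logistic fit of luciferase signal as percent of untreated control. Readout follows 72 h compound exposure, in triplicate, of the HCV 1b_Huh-Luc/Neo-ET replicon line.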

`COC(=O)N[C@H](C(=O)N[C@@H](C)c1ncc(-c2ccc(C#Cc3ccc(-c4cnc([C@@H]5CCCN5C(=O)[C@H](C(C)C)N(C)C)[nH]4)cc3)cc2)[nH]1)C(C)C` [Compound 963] and `COC(=O)N[C@H](C(=O)N[C@@H](C)c1ncc(-c2ccc(C#Cc3ccc(-c4cnc([C@@H]5CCCN5C(=O)[C@@H](C(C)C)N(C)C)[nH]4)cc3)cc2)[nH]1)C(C)C` [Compound 964] fall in the same range of EC50: 1 to 9.9 nM for the first, 1 to 9.9 nM for the second.

`COC(=O)N[C@H](C(=O)N[C@@H](C)c1ncc(-c2ccc(C#Cc3ccc(-c4cnc([C@@H]5CCCN5C(=O)[C@@H](c5ccccc5)N(C)C)[nH]4)cc3)cc2)[nH]1)C(C)C` [Compound 965] and `COC(=O)N[C@H](C(=O)N1CCC[C@H]1c1ncc(-c2ccc(C#Cc3ccc(-c4cnc([C@H](C)NC(=O)[C@@H](c5ccccc5)N(C)C)[nH]4)cc3)cc2)[nH]1)C(C)C` [Compound 983] cannot be ordered by EC50: under 1 nM for the first, under 1 nM for the second.

`CC(C)[C@H](NC(=O)N1CCC(C)(O)CC1)C(=O)N1CCC[C@H]1c1ncc(-c2ccc(C#Cc3ccc(-c4cnc([C@@H]5CCCN5C(=O)[C@@H](NC(=O)N5CCC(C)(O)CC5)C(C)C)[nH]4)cc3)cc2)[nH]1` [Compound 966] and `CC(C)[C@H](NC(=O)N1CCNCC1)C(=O)N1CCC[C@H]1c1ncc(-c2ccc(C#Cc3ccc(-c4cnc([C@@H]5CCCN5C(=O)[C@@H](NC(=O)N5CCNCC5)C(C)C)[nH]4)cc3)cc2)[nH]1` [Compound 967] fall in the same range of EC50: 10 to 999 nM for the first, 10 to 999 nM for the second.

`CC(C)[C@H](NC(=O)N1CC[C@@H](O)C1)C(=O)N1CCC[C@H]1c1ncc(-c2ccc(C#Cc3ccc(-c4cnc([C@@H]5CCCN5C(=O)[C@@H](NC(=O)N5CC[C@@H](O)C5)C(C)C)[nH]4)cc3)cc2)[nH]1` [Compound 968] and `CC(C)[C@H](NC(=O)N1CC[C@H](O)C1)C(=O)N1CCC[C@H]1c1ncc(-c2ccc(C#Cc3ccc(-c4cnc([C@@H]5CCCN5C(=O)[C@@H](NC(=O)N5CC[C@H](O)C5)C(C)C)[nH]4)cc3)cc2)[nH]1` [Compound 988] fall in the same range of EC50: 10 to 999 nM for the first, 10 to 999 nM for the second.

Compared with `COC(=O)N[C@H](C(=O)N[C@@H](C)c1ncc(-c2ccc(C#Cc3ccc(-c4cnc([C@H](C)NC(=O)[C@@H](NC(=O)OC)[C@@H](C)O)[nH]4)cc3)cc2)[nH]1)[C@@H](C)O` [Compound 969], `COC(=O)NC(C(=O)N1CCC[C@H]1c1ncc(-c2ccc(C#Cc3ccc(-c4cnc([C@@H]5CCCN5C(=O)[C@H](NC(=O)OC)[C@H](C)O)[nH]4)cc3)cc2)[nH]1)[C@H](C)O` (stereo partly drawn) [Compound 978] is higher in EC50: under 1 nM for the first, 10 to 999 nM for the second. The first is the more potent here.

`COC(=O)N[C@H](C(=O)N1CCC[C@H]1c1ncc(-c2ccc(C#Cc3ccc(-c4cnc([C@@H]5CCCN5C(=O)[C@@H](c5ccccc5)N5CCC(C)(O)CC5)[nH]4)cc3)cc2)[nH]1)C(C)C` [Compound 970] and `COC(=O)N[C@H](C(=O)N1CCC[C@H]1c1ncc(-c2ccc(C#Cc3ccc(-c4cnc([C@@H]5CCCN5C(=O)[C@@H](c5ccccc5)N5CCCC5)[nH]4)cc3)cc2)[nH]1)C(C)C` [Compound 984] cannot be ordered by EC50: under 1 nM for the first, under 1 nM for the second.

`COC(=O)NC(C(=O)N1CCC[C@H]1c1ncc(-c2ccc(C#Cc3ccc(-c4cnc([C@@H]5CCCN5C(=O)[C@@H](NC(=O)OC)C(C)C)[nH]4)cc3)cc2)[nH]1)[C@@H](C)O` (stereo partly drawn) [Compound 971] and `COC(=O)NC(C(=O)N1CCC[C@H]1c1ncc(-c2ccc(C#Cc3ccc(-c4cnc([C@@H]5CCCN5C(=O)[C@@H](NC(=O)OC)C(C)C)[nH]4)cc3)cc2)[nH]1)[C@@H](C)OC` (stereo partly drawn) [Compound 972] cannot be ordered by EC50: under 1 nM for the first, under 1 nM for the second.

`COC(=O)N[C@H](C(=O)N1CCC[C@H]1c1ncc(-c2ccc(C#Cc3ccc(-c4cnc([C@@H]5CCCN5C(=O)[C@H](NC(=O)N(CCO)CCO)c5ccccc5)[nH]4)cc3)cc2)[nH]1)C(C)C` [Compound 973] and `COC(=O)N[C@H](C(=O)N1CCC[C@H]1c1ncc(-c2ccc(C#Cc3ccc(-c4cnc([C@@H]5CCCN5C(=O)[C@H](NC(=O)OC)c5ccccc5)[nH]4)cc3)cc2)[nH]1)C(C)C` [Compound 1002] cannot be ordered by EC50: under 1 nM for the first, under 1 nM for the second.

`COC(=O)N[C@H](C(=O)N1CCC[C@H]1c1ncc(-c2ccc(C#Cc3ccc(-c4cnc([C@@H]5CCCN5C(=O)[C@H](NC(=O)N5CC[C@H](O)C5)c5ccccc5)[nH]4)cc3)cc2)[nH]1)C(C)C` [Compound 974] and `COC(=O)N[C@H](C(=O)N1CCC[C@H]1c1ncc(-c2ccc(C#Cc3ccc(-c4cnc([C@@H]5CCCN5C(=O)[C@H](NC(=O)N5CC[C@@H](O)C5)c5ccccc5)[nH]4)cc3)cc2)[nH]1)C(C)C` [Compound 975] cannot be ordered by EC50: under 1 nM for the first, under 1 nM for the second.

First: COC[C@H](NC(=O)OC)C(=O)N1CCC[C@H]1c1ncc(-c2ccc(C#Cc3ccc(-c4cnc([C@@H]5CCCN5C(=O)[C@H](COC)NC(=O)OC)[nH]4)cc3)cc2)[nH]1 [Compound 976]
Second: COC(=O)N[C@@H](C(=O)N1CCC[C@H]1c1ncc(-c2ccc(C#Cc3ccc(-c4cnc([C@@H]5CCCN5C(=O)[C@H](NC(=O)OC)[C@H](C)OC)[nH]4)cc3)cc2)[nH]1)[C@H](C)OC [Compound 977]
The EC50 of the first is lower: under 1 nM for the first, 10 to 999 nM for the second. The first is the more potent here.

`C[C@H]1OC(=O)N[C@@H]1C(=O)N1CCC[C@H]1c1ncc(-c2ccc(C#Cc3ccc(-c4cnc([C@@H]5CCCN5C(=O)[C@H]5NC(=O)O[C@@H]5C)[nH]4)cc3)cc2)[nH]1` [Compound 979] and `C[C@@H]1OC(=O)N[C@H]1C(=O)N1CCC[C@H]1c1ncc(-c2ccc(C#Cc3ccc(-c4cnc([C@@H]5CCCN5C(=O)[C@@H]5NC(=O)O[C@H]5C)[nH]4)cc3)cc2)[nH]1` [Compound 1000] fall in the same range of EC50: 10 to 999 nM for the first, 10 to 999 nM for the second.

`C[C@H]1OC(=O)N(C)[C@@H]1C(=O)N1CCC[C@H]1c1ncc(-c2ccc(C#Cc3ccc(-c4cnc([C@@H]5CCCN5C(=O)[C@@H]5[C@@H](C)OC(=O)N5C)[nH]4)cc3)cc2)[nH]1` [Compound 980] and `CC(C)[C@@H](C(=O)N1CCC[C@H]1c1ncc(-c2ccc(C#Cc3ccc(-c4cnc([C@@H]5CCCN5C(=O)[C@H](C(C)C)N5CCOC5=O)[nH]4)cc3)cc2)[nH]1)N1CCOC1=O` [Compound 1006] fall in the same range of EC50: 10 to 999 nM for the first, 10 to 999 nM for the second.

`COC(=O)N[C@H](C(=O)N1CCC[C@H]1c1ncc(-c2ccc(C#Cc3ccc(-c4cnc([C@H](C)NC(=O)[C@H](C(C)C)N(C)C)[nH]4)cc3)cc2)[nH]1)C(C)C` [Compound 981] and `COC(=O)N[C@H](C(=O)N1CCC[C@H]1c1ncc(-c2ccc(C#Cc3ccc(-c4cnc([C@H](C)NC(=O)[C@@H](C(C)C)N(C)C)[nH]4)cc3)cc2)[nH]1)C(C)C` [Compound 982] fall in the same range of EC50: 10 to 999 nM for the first, 10 to 999 nM for the second.

`CCN(CC)[C@@H](C(=O)N1CCC[C@H]1c1ncc(-c2ccc(C#Cc3ccc(-c4cnc([C@@H]5CCCN5C(=O)[C@@H](NC(=O)OC)C(C)C)[nH]4)cc3)cc2)[nH]1)c1ccccc1` [Compound 985] and `COC(=O)N[C@H](C(=O)N1CCC[C@H]1c1ncc(-c2ccc(C#Cc3ccc(-c4cnc([C@@H]5CCCN5C(=O)[C@@H](c5ccccc5)N5CCCCC5)[nH]4)cc3)cc2)[nH]1)C(C)C` [Compound 986] cannot be ordered by EC50: under 1 nM for the first, under 1 nM for the second.

`COC(=O)N[C@H](C(=O)N1CCC[C@H]1c1ncc(-c2ccc(C#Cc3ccc(-c4cnc([C@@H]5CCCN5C(=O)[C@@H](c5ccccc5)N5CCOCC5)[nH]4)cc3)cc2)[nH]1)C(C)C` [Compound 987] and `COC(=O)N[C@H](C(=O)N1CCC[C@H]1c1ncc(-c2ccc(C#Cc3ccc(-c4cnc([C@@H]5CCCN5C(=O)[C@H](NC(=O)N5CCN(C)CC5)c5ccccc5)[nH]4)cc3)cc2)[nH]1)C(C)C` [Compound 989] cannot be ordered by EC50: under 1 nM for the first, under 1 nM for the second.

`COC(=O)N[C@H](C(=O)N1CCC[C@H]1c1ncc(-c2ccc(C#Cc3ccc(-c4cnc([C@@H]5CCCN5C(=O)[C@@H](NC(=O)N5CCN(CCO)CC5)c5ccccc5)[nH]4)cc3)cc2)[nH]1)C(C)C` [Compound 990] and `COC(=O)N[C@H](C(=O)N1CCC[C@H]1c1ncc(-c2ccc(C#Cc3ccc(-c4cnc([C@@H]5CCCN5C(=O)[C@H](NC(=O)N5CCC(O)CC5)c5ccccc5)[nH]4)cc3)cc2)[nH]1)C(C)C` [Compound 991] fall in the same range of EC50: 1 to 9.9 nM for the first, 1 to 9.9 nM for the second.

`COC(=O)N[C@H](C(=O)N1CCC[C@H]1c1ncc(-c2ccc(C#Cc3ccc(-c4cnc([C@@H]5CCCN5C(=O)[C@H](NC(=O)N5CCC(C)(O)CC5)c5ccccc5)[nH]4)cc3)cc2)[nH]1)C(C)C` [Compound 992] and `COC(=O)N[C@@H](C)C(=O)N1CCC[C@H]1c1ncc(-c2ccc(C#Cc3ccc(-c4cnc([C@@H]5CCCN5C(=O)[C@H](NC(=O)OC)c5ccccc5)[nH]4)cc3)cc2)[nH]1` [Compound 1004] cannot be ordered by EC50: under 1 nM for the first, under 1 nM for the second.

`COC(=O)N[C@H](C(=O)N1CCC[C@H]1c1ncc(-c2ccc(C#Cc3ccc(-c4cnc([C@@H]5CCCN5C(=O)[C@@H](NC(=O)OC)C(C)(C)O)[nH]4)cc3)cc2)[nH]1)C(C)(C)O` [Compound 993] and `COC(=O)N[C@H](C(=O)N1CCC[C@H]1c1ncc(-c2ccc(C#Cc3ccc(-c4cnc([C@@H]5CCCN5C(=O)[C@@H](NC(=O)OC)C(C)(C)O)[nH]4)cc3)cc2)[nH]1)C(C)C` [Compound 994] cannot be ordered by EC50: under 1 nM for the first, under 1 nM for the second.

`COC(=O)N[C@H](C(=O)N1CCC[C@H]1c1ncc(-c2ccc(C#Cc3ccc(-c4cnc([C@@H]5CCCN5C(=O)[C@@H](Nc5cccnc5)C(C)C)[nH]4)cc3)cc2)[nH]1)C(C)C` [Compound 995] and `COC(=O)N[C@H](C(=O)N1CCC[C@H]1c1ncc(-c2ccc(C#Cc3ccc(-c4cnc([C@@H]5CCCN5C(=O)[C@@H](Nc5ncccn5)C(C)C)[nH]4)cc3)cc2)[nH]1)C(C)C` [Compound 1003] cannot be ordered by EC50: under 1 nM for the first, under 1 nM for the second.

`COC(=O)N[C@H](C(=O)N1CCC[C@H]1c1ncc(-c2ccc(C#Cc3ccc(-c4cnc([C@@H]5CCCN5C(=O)[C@H](C(C)C)N5CCOC5=O)[nH]4)cc3)cc2)[nH]1)C(C)C` [Compound 996] and `COC(=O)N[C@@H](C(=O)N1CCC[C@H]1c1ncc(-c2ccc(C#Cc3ccc(-c4cnc([C@@H]5CCCN5C(=O)[C@H](C(C)C)N5CCOC5=O)[nH]4)cc3)cc2)[nH]1)c1ccccc1` [Compound 1005] cannot be ordered by EC50: under 1 nM for the first, under 1 nM for the second.

First: CNC(=O)N[C@@H](C(=O)N1CCC[C@H]1c1ncc(-c2ccc(C#Cc3ccc(-c4cnc([C@@H]5CCCN5C(=O)[C@H](NC(=O)C5CC5)c5ccccc5)[nH]4)cc3)cc2)[nH]1)c1ccccc1 [Compound 997]
Second: COC(=O)N[C@H](C(=O)N1CCC[C@H]1c1ncc(-c2ccc(C#Cc3ccc(-c4cnc([C@@H]5CCCN5C(=O)[C@@H](NC5CCOCC5)C(C)C)[nH]4)cc3)cc2)[nH]1)C(C)C [Compound 1001]
The EC50 of the first is lower: under 1 nM for the first, 1 to 9.9 nM for the second.

Source: US8865756B2, “Inhibitors of HCV NS5A” (Presidio Pharmaceuticals, Inc., priority 2008, dated 2014)
